Measured values: US10780092B2, “Fused pyrazine derivatives useful as soluble guanylate cyclase stimulators” (Merck Sharp & Dohme Corp., priority 2016, dated 2020)

Legend:
sGC α1/β1 heterodimer = sGC α1/β1 heterodimer (Homo sapiens (Human), UniProt Q02108+Q02153); experiment: Cell-based sGC functional assay (CASA assay), cGMP by HTRF; settings: CHO-K1/sGC cells; for Emax: CHO-K1, cGMP production as percentage of maximum of compound A (set to 100%), read-out: % Activation; for EC50: inflection point of cGMP production, 4P fit, read-out: IP
Procedure, shortened: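 cGMP made in CHO-K1/sGC (human α1/β1) cells is read by HTRF after compound treatment for 1 hr at 37° C, following 30 min at 25° C with or without 1 μM DETA-NO; IBMX 0.5 mM present. Values are % of standard compound maximum; 4P fit.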

[1] = system: hypoxia-induced pulmonary hypertension in rat; experiment: Acute efficacy in hypoxia-induced pulmonary hypertension in rat following intratracheal (IT) administration; format: in vivo; settings: decrease in SBP at dose giving decrease in PAP ≥15 mmHg
Source text: Acute Efficacy in Hypoxia-Induced Pulmonary Hypertension in Rat Following Intratracheal (IT) Administration Charles River Sprague-Dawley (CD) male rats weighing approximately 350 g were implanted with HD-S21 dual pressure telemetry transmitters (Data Sciences International (DSI)) into the pulmonary artery and femoral artery. This transmitter enables simultaneous measurement of both pulmonary and systemic hemodynamic parameters in the same animal. After a 7-10 day post-operative recovery period, animals were subjected to a normobaric hypoxic (10% oxygen) environment using a Higher Peak Mountain Air Generator (MAG-10) connected to a modified rodent cage via a fitted inlet port. Oxygen (at 10%), temperature, humidity, and CO2 were controlled within normal range and animals were maintained on a 12 hour light-dark cycle with ad libitum access to food and water. After two weeks exposure to 10% O2 hypoxic environment, systolic pulmonary arterial pressure readings increased from ˜25 mmHg to greater than 50 mmHg. Using a 48 hour baseline average, animals with readings between 50-110 mmHg (standard deviation of less than 10 mmHg) and minimal changes in systolic systemic blood pressure were enrolled for study. Animals were utilized for up to 2 studies per week for 4 weeks with a minimum of 2 days washout between doses of test agent. Compound or vehicle was administered intra-tracheally under light isoflurane anesthesia (5% in oxygen; flow rate 2.0 L/min for 3 minutes). Once anesthetized, rats were placed on an angled intubation stand in supine position and the trachea visualized using a small laryngoscope. Animals then received either 0.5 mL/kg of vehicle or 0.5 mL/kg vehicle containing compound intra-tracheally delivered via microsprayer by use of a Penn-Century Microsprayer® needle 3″ (Model IA-1B-GP) attached to a 1 mL high pressure syringe (Penn Century-Model B—SYR-PL1000) (Penn-Century, Philadelphia, Pa.). The Microsprayer® tip was inserted into the trachea up to the point at which the bend in the needle is close to the tip of the snout, which positions the tip of the Microsprayer® in front of the carina (bifurcation of trachea at the bronchi). After dose delivery the animal is placed on its back in the home cage for recovery. Hemodynamic measurements were continuously recorded and readings consolidated to hourly moving averages. Each animal received a vehicle on Day 1 followed by vehicle or test agent on Day 2. Change from vehicle baseline was calculated by subtracting the hourly Day 1 vehicle response from the hourly Day 2 response and treatment group data was expressed as mean±SEM. Decreases of systolic blood pressure (SBP) and systolic pulmonary arterial pressure (PAP) were measured at a particular IT dose (mpk milligrams per kilogram) for the following Example compounds. Compounds in the Table 13 achieved a minimum decrease in PAP of ≥15 mmHg for the corresponding decrease in SBP listed.

[2] = target: human recombinant sGC enzyme (Homo sapiens (Human), UniProt Q02108+Q02153); experiment: SEC competition binding assay with [3H] Compound B radioligand; settings: displacement of 1.6 nM [3H] Compound B, 24 h at 37° C.
Procedure, shortened: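 Competition format: [3H] Compound B (1.6 nM) displaced from human recombinant sGC over 24 h at 37° C. in triethanolamine pH 7.4 buffer with MgCl2, BSA, DTT, 300 μM DETA/NO and 400 μM GTP (1% DMSO). Gel-filtration eluates counted by liquid scintillation; 1 μM Compound B defined non-specific binding; Ki by one-site fit.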

Structure (SMILES) | Emax (sGC α1/β1 heterodimer) | EC50 (sGC α1/β1 heterodimer) | Category (decrease in SBP) ([1]; IT dose 0.01 mpk) | Ki [2] | Category (decrease in SBP) ([1]; IT dose 0.3 mpk) | Category (decrease in SBP) ([1]; IT dose 0.03 mpk)
Cc1ccc(C2(C)C(=O)Nc3nc(-c4cn5ccnc5c(Cc5cccc(F)c5)n4)nc(N)c32)cc1O (stereo not drawn) [Example 107-B, 4-Amino-2-{8-[(3-fluorophenyl)methyl]imidazo[1,2-a]pyrazin-6-yl}-5-(3-hydroxy-4-methylphenyl)-5-methyl-5,7-dihydro-6H-pyrrolo[2,3-d]pyrimidin-6-one] | 135% | 198 nM | A (decrease in SBP 0-5 mmHg) | 0.221 nM | – | –
CC1(c2cccc(O)c2)C(=O)Nc2nc(-c3cn4ncnc4c(CCC(F)(F)C(F)(F)F)n3)nc(N)c21 (stereo not drawn) [Example 78-B, 4-Amino-5-(3-hydroxyphenyl)-5-methyl-2-(8-(3,3,4,4,4-pentafluorobutyl)-[1,2,4]triazolo[1,5-a]pyrazin-6-yl)-5,7-dihydro-6H-pyrrolo[2,3-d]pyrimidin-6-one] | 93% | 202 nM | – | 8.88 nM | C (decrease in SBP >10 mmHg) | –
CC1(c2ccc(C(F)(F)F)c(O)c2)C(=O)Nc2nc(-c3cn4ccnc4c(Cc4ccccc4F)n3)nc(N)c21 (stereo not drawn) [Example 3-B, 4-Amino-2-{8-[(2-fluorophenyl)methyl]imidazo[1,2-a]pyrazin-6-yl}-5-[3-hydroxy-4-(trifluoromethyl)phenyl]-5-methyl-5,7-dihydro-6H-pyrrolo[2,3-d]pyrimidin-6-one] | 98% | 2080 nM | – | 0.219 nM | – | A (decrease in SBP 0-5 mmHg)
CC1(c2cc(O)c(Cl)cn2)C(=O)Nc2nc(-c3cn4ccnc4c(CC4CCCCC4)n3)nc(N)c21 (stereo not drawn) [Example 93-B, 4-Amino-5-(5-chloro-4-hydroxypyridin-2-yl)-2-(8-(cyclohexylmethyl)imidazo[1,2-a]pyrazin-6-yl)-5-methyl-5,7-dihydro-6H-pyrrolo[2,3-d]pyrimidin-6-one] | 98% | 683 nM | – | 0.374 nM | – | A (decrease in SBP 0-5 mmHg)
CC1(c2ccc(Cl)c(O)c2)C(=O)Nc2nc(-c3cn4ncnc4c(CCC(F)(F)C(F)(F)F)n3)nc(N)c21 (stereo not drawn) [Example 88-A, 4-Amino-5-(4-chloro-3-hydroxyphenyl)-5-methyl-2-(8-(3,3,4,4,4-pentafluorobutyl)-[1,2,4]triazolo[1,5-a]pyrazin-6-yl)-5,7-dihydro-6H-pyrrolo[2,3-d]pyrimidin-6-one] | 95% | 279 nM | – | 2.5 nM | – | A (decrease in SBP 0-5 mmHg)
CC1(c2cc(O)ccn2)C(=O)Nc2nc(-c3cn4ncnc4c(CC4CCCCC4)n3)nc(N)c21 (stereo not drawn) [Example 109-A, 4-Amino-2-(8-(cyclo-hexylmethyl)-[1,2,4]-triazolo[1,5-a]pyrazin-6-yl)-5-(4-hydroxy-pyridin-2-yl)-5-methyl-5,7-dihydro-6H-pyrrolo-[2,3-d]pyrimidin-6-one] | 97% | 221 nM | – | 0.634 nM | – | C (decrease in SBP >10 mmHg)
CC1(c2cc(O)c(C#N)c(F)c2)C(=O)Nc2nc(-c3cn4ccnc4c(CC4CCCCC4)n3)nc(N)c21 (stereo not drawn) [Example 18-B, 4-(4-Amino-2-(8-(cyclohexylmethyl)imidazo[1,2-a]pyrazin-6-yl)-5-methyl-6-oxo-6,7-dihydro-5H-pyrrolo[2,3-d]pyrimidin-5-yl)-2-fluoro-6-hydroxybenzonitrile] | 88% | 950 nM | – | 0.168 nM | – | B (decrease in SBP 5-10 mmHg)
CC1(c2ccc(Cl)c(O)c2)C(=O)Nc2nc(-c3cn4ccnc4c(Cc4ccccc4F)n3)nc(N)c21 (stereo not drawn) [Example 8-A, 4-Amino-5-(4-chloro-3-hydroxyphenyl)-2-{8-[(2-fluorophenyl)methyl]imidazo[1,2-a]pyrazin-6-yl}-5-methyl-5,7-dihydro-6H-pyrrolo[2,3-d]pyrimidin-6-one] | 72% | 316 nM | B (decrease in SBP 5-10 mmHg) | 0.117 nM | – | –
CC1(c2cc(O)c(C(F)(F)F)c(F)c2)C(=O)Nc2nc(-c3cn4ccnc4c(CC4CCCCC4)n3)nc(N)c21 (stereo not drawn) [Example 97-B, 4-Amino-2-(8-(cyclohexylmethyl)imidazo[1,2-a]pyrazin-6-yl)-5-(3-fluoro-5-hydroxy-4-(trifluoromethyl)phenyl)-5-methyl-5,7-dihydro-6H-pyrrolo[2,3-d]pyrimidin-6-one] | 138% | 1080 nM | – | 0.587 nM | – | A (decrease in SBP 0-5 mmHg)
CC1(c2cc(O)c(Cl)cn2)C(=O)Nc2nc(-c3cn4ncnc4c(CC4CCCCC4)n3)nc(N)c21 (stereo not drawn) [Example 105-B, 4-Amino-5-(5-chloro-4-hydroxypyridin-2-yl)-2-(8-(cyclohexylmethyl)-[1,2,4]triazolo[1,5-a]pyrazin-6-yl)-5-methyl-5,7-dihydro-6H-pyrrolo[2,3-d]pyrimidin-6-one] | 108% | 138 nM | – | 0.213 nM | – | B (decrease in SBP 5-10 mmHg)
CC1(c2ccc(O)c(F)c2)C(=O)Nc2nc(-c3cn4ccnc4c(Cc4ccc(F)cc4)n3)nc(N)c21 (stereo not drawn) [Example 29-B, 4-Amino-5-(3-fluoro-4-hydroxyphenyl)-2-{8-[(4-fluorophenyl)methyl]imidazo[1,2-a]pyrazin-6-yl}-5-methyl-5,7-dihydro-6H-pyrrolo[2,3-d]pyrimidin-6-one] | 80% | 67 nM | – | 0.291 nM | – | C (decrease in SBP >10 mmHg)
CC1(c2ccc(Cl)c(O)c2)C(=O)Nc2nc(-c3cn4ccnc4c(CC4CCCCC4)n3)nc(N)c21 (stereo not drawn) [Example 14-A, 4-Amino-5-(4-chloro-3-hydroxyphenyl)-2-(8-(cyclohexylmethyl)imidazo[1,2-a]pyrazin-6-yl)-5-methyl-5,7-dihydro-6H-pyrrolo[2,3-d]pyrimidin-6-one] | 68% | 144 nM | A (decrease in SBP 0-5 mmHg) | 0.156 nM | – | –
CC1(c2cc(O)c(C#N)c(F)c2)C(=O)Nc2nc(-c3cn4ccnc4c(Cc4cc(F)cc(F)c4)n3)nc(N)c21 (stereo not drawn) [Example 38-B, 4-(4-Amino-2-{8-[(3,5-difluorophenyl)methyl]imidazo[1,2-a]pyrazin-6-yl}-5-methyl-6-oxo-6,7-dihydro-5H-pyrrolo[2,3-d]pyrimidin-5-yl)-2-fluoro-6-hydroxybenzonitrile] | 92% | 720 nM | – | 0.41 nM | – | A (decrease in SBP 0-5 mmHg)
CC1(c2ccc(F)c(O)c2)C(=O)Nc2nc(-c3cn4ccnc4c(CCC(F)(F)C(F)(F)F)n3)nc(N)c21 (racemic) [Example 115-B, 4-Amino-5-(4-fluoro-3-hydroxyphenyl)-5-methyl-2-(8-(3,3,4,4,4-pentafluorobutyl)-imidazo[1,2-a]pyrazin-6-yl)-5,7-dihydro-6H-pyrrolo[2,3-d]pyrimidin-6-one] | 79% | 63 nM | – | 5.03 nM | C (decrease in SBP >10 mmHg) | –
CC1(c2cc(O)c(C#N)c(F)c2)C(=O)Nc2nc(-c3cn4ccnc4c(Cc4ccccc4F)n3)nc(N)c21 (stereo not drawn) [Example 23-B, 4-(4-Amino-2-{8-[(2-fluorophenyl)methyl]imidazo[1,2-a]pyrazin-6-yl}-5-methyl-6-oxo-6,7-dihydro-5H-pyrrolo[2,3-d]pyrimidin-5-yl)-2-fluoro-6-hydroxybenzonitrile] | 76% | 3110 nM | – | 0.216 nM | – | A (decrease in SBP 0-5 mmHg)
